Results reported in US20240368104A1, “Novel Dialkoxynaphtho[2,3-C]Furan-1(3H)-One Derivatives and Pharmaceutical Composition For Preventing or Treating Respiratory Disease or SARS-COV-2 Infection Disease, Comprising Same” (priority 2021, published 2024).
Structures can show the parent of a compound that is named as a salt. Where two headings read alike, the source gives them in different places.

Legend:
SARS-COV-2 = assay: microbe, parasite or virus in culture; assay type: cell-based; design: SI (Selectivity Index, CC50/IC50): unit not given here; conditions: for SI (Selectivity Index, CC50/IC50): SARS-COV-2, values >50 assumed to be 50; for IC50: read-out: SARS-COV-2 inhibition (IC50)
in vitro = conditions: African green monkey
[1] = Severe acute respiratory syndrome coronavirus 2, Vero cells, 24 hours infection
[2] = Severe acute respiratory syndrome coronavirus 2, Vero, 24 h

| Structure (SMILES) | SI (Selectivity Index, CC50/IC50) (SARS-COV-2) | IC50 (SARS-COV-2; [1]) [µM] | CC50 (in vitro) [µM] | IC50 (SARS-COV-2; [2]) [µM] |
| --- | --- | --- | --- | --- |
| COc1cc2cc3c(c(-c4cnc(N(C)CC5CC5)nc4)c2cc1OC)C(=O)OC3 [Example 68, 9-(2-((cyclopropylmethyl)(methyl)amino)pyrimidin-5-yl)-6,7-dimethoxynaphtho[2,3-c]furan-1(3H)-one] | 270.89 | 0.18 | > 50 | – |
| CCCCN(C)c1ncc(-c2c3c(cc4cc(OC)c(OC)cc24)COC3=O)cn1 [Example 71, 9-(2-(butyl(methyl)amino)pyrimidin-5-yl)-6,7-dimethoxynaphtho[2,3-c]furan-1(3H)-one] | 234.36 | – | > 50 | 0.21 |
| COc1cc2cc3c(c(-c4ccc(N5CCCC(C)C5)nc4)c2cc1OC)C(=O)OC3 (centres unmarked) [Example 126, 6,7-dimethoxy-9-(6-(3-methylpiperidin-1-yl)pyridin-3-yl)naphtho[2,3-c]furan-1(3H)-one] | 122.97 | 0.41 | > 50 | – |
| COc1cc2cc3c(c(-c4ccc(N(C)c5ccc(C#N)cc5)nc4)c2cc1OC)C(=O)OC3.Cl [Example 218, 4-((5-(6,7-dimethoxy-3-oxo-1,3-dihydronaphtho[2,3-c]furan-4-yl)pyridin-2-yl)(methyl)amino)benzonitrile] | 65.75 | – | > 50 | 0.76 |
| COc1cc2cccc(-c3c4c(cc5cc(OC)c(OC)cc35)COC4=O)c2cn1 [Example 133, 6,7-dimethoxy-9-(3-methoxyisoquinolin-8-yl)naphtho[2,3-c]furan-1(3H)-one] | 1.0 | > 50 | > 50 | – |
| COc1cc2cc3c(c(-c4ccc(N(C)C5CC5)nc4)c2cc1OC)C(=O)OC3 [Example 171, 9-(6-(cyclopropyl(methyl)amino)pyridin-3-yl)-6,7-dimethoxynaphtho[2,3-c]furan-1(3H)-one] | 885.42 | 0.06 | > 50 | – |
| COc1cc2cc3c(c(-c4ccc(C(=O)c5ccccc5)s4)c2cc1OC)C(=O)OC3 [Example 53] | 19.94 | 2.51 | > 50 | – |
| COc1cc2cc3c(c(-c4cnc(N5CCCC(O)C5)nc4)c2cc1OC)C(=O)OC3.Cl (centres unmarked) [Example 80, 9-(2-(3-hydroxyperidin-1-ylpyrimidin-5-yl)-6,7-dimethoxynaphtho[2,3-c]furan-1(3H)-one hydrochloride] | – | – | > 50 | 11.9 |
| COc1cc2cc3c(c(-c4cc5c(cc4OP(=O)(NCCN4CCOCC4)Oc4ccccc4)OCO5)c2cc1OC)C(=O)OC3 (centres unmarked) [Example 279, 6-(6,7-dimethoxy-3-oxo-1,3-dihydronaphtho[2,3-c]furan-4-yl)benzo[d][1,3]dioxol-5-yl phenyl (2-morpholinoethyl)phosphoramidate] | 8.21 | – | > 50 | 6.09 |
| CCCCCCCCN(CCCCCCCC)c1ncc(-c2c3c(cc4cc(OC)c(OC)cc24)COC3=O)cn1.Cl [Example 95, 9-(2-(dioctylamino)pyrimidin-5-yl)-6,7-dimethoxynaphtho[2,3-c]furan-1(3H)-one hydrochloride] | 1.00 | – | > 50 | > 50 |
| COc1cc2cc3c(c(-c4cnc(/N=C\CN(C)C)cn4)c2cc1OC)C(=O)OC3 [Example 29, (Z)-9-(5-((2-(dimethylamino)ethyliden)amino)pyrazin-2-yl)-6,7-dimethoxynaphtho[2,3-c]furan-1(3H)-one] | 1.00 | > 50 | > 50 | – |
| COC[C@H]1CCCN1c1ncc(-c2c3c(cc4cc(OC)c(OC)cc24)COC3=O)cn1 [Example 102, (R)-6,7-dimethoxy-9-(2-(2-(methoxymethyl)pyrrolidin-1-yl)pyrimidin-5-yl)naphtho[2,3-c]furan-1(3H)-one hydrochloride] | 30.41 | – | > 50 | 1.64 |
